Laboratory results from patent US20250312258A1, “2,3-PYRROLIDINEDIONE CONJUGATES AND METHODS OF USING THEREOF” (North Carolina State University, priority 2022, published 2025).
Converted amounts (≈) assume the structure as drawn. Read-outs that look alike come from different tables or passages of the source.

Experiments:
vanA VRE 700221 = assay: MIC against vanA VRE 700221; type: cell-based, Enterococcus spp.; conditions: Enterococcus
vanB VRE 51299 = assay: MIC against vanB VRE 51299; type: cell-based, Enterococcus spp.; conditions: Enterococcus
S. aureus VRS-2 = assay: VRSA thigh infection model in neutropenic mice; type: in vivo, mouse; conditions: 100 mg/kg IP BID q12h; for bacterial count reduction in thigh tissue relative to the vehicle control group: 26 h post-infection, p<0.05
Protocol: (§1) FIG. 8 is a plot comparing the efficacy of linezolid, Compound 4 (AV-0273), and Compound 8 (AV-0267) in the S. aureus VRS-2 thigh infection model, CFU/g thigh. Test animals were rendered neutropenic with cyclophosphamide administration, 150 mg/kg on Day −4 then 100 mg/kg on Day −1 prior to infection on Day 0. On Day 0, animals were intramuscularly inoculated with 8.4×10^4 CFU/mouse (0.1 mL/animal) of the S. aureus VRS-2 strain. The vehicle and the test articles, Compound 4 (AV-0273) and Compound 8 (AV-0267), both at 100 mg/kg, were each intraperitoneally (IP) administered twice with a 12 h interval (BID q12h) at 2 and 14 h after infection. The reference standard, linezolid at 50 mg/kg, was orally (PO) administered BID q12 h starting at 2 h post-infection. Animals were sacrificed at 2 or 26 h post-infection, and the thigh tissues were harvested and weighed from each of the test animals. The bacterial counts (CFU/g thigh) of thigh tissue homogenates were measured.
as §1, with “FIG. 9” for “FIG. 8”, “of linezolid” for “of linezolid,”, “CFU/g thigh, change in bacterial counts relative to baseline count at 26h post-infection. Data represent the change in bacterial counts in thigh tissue following test article treatment relative to the initial 2 h CFU/g thigh or CFU/thigh at the time of dosing (baseline counts).” for “CFU/g thigh.”, “(BID q12 h)” for “(BID q12h)”, “(CFU/g thigh and CFU/thigh)” for “(CFU/g thigh)”, “were compared.” for “were measured.”
Example vancomycin-2,3-pyrrolidinediones conjugates were evaluated using an in vivo tissue infection model with vancomycin resistant MRSA:
Animal model: Murine thigh infection
Bacteria: VRSA (VRS-2). Gram Positive, Staphylococcus aureus (VRSA, VRS-2), Mouse Infected Thigh Model. VRS-2 is VanA producing SCC Mec II st5 train.
Vancomycin conjugates dose: 100 mg/Kg intraperitoneally (IP).
Application: This model assesses the antimicrobial efficacy of test articles in a tissue infection model with vancomycin resistant MRSA. Microbial counts are measured. […]

S. aureus (strain HG003) = assay: Time-dependent killing of S. aureus (strain HG003); type: cell-based, Staphylococcus aureus; conditions: S. aureus strain HG003, liquid culture, single inoculation, FIG. 2
From the text: FIG. 2 is a plot showing the time-dependent killing of S. aureus (strain HG003) by vancomycin and an example vancomycin-2-3-pyrrolidinedione conjugate (Compound 4).
(§2) With these initial results in hand, the time-dependent killing of bacterial strains by the vancomycin-2-3-pyrrolidinedione conjugates was investigated. FIG. 2 is a plot showing the time-dependent killing of S. aureus (strain HG003) by vancomycin and an example vancomycin-2-3-pyrrolidinedione conjugate (Compound 4, also referred to as AV-273). FIG. 3 is a plot showing the time-dependent killing of MRSA (strain LAC) by vancomycin and an example vancomycin-2-3-pyrrolidinedione conjugate (Compound 4).

MRSA (strain LAC) = assay: Time-dependent killing of MRSA (strain LAC); type: cell-based, Staphylococcus aureus; conditions: liquid culture, single inoculation, FIG. 3
From the text: FIG. 3 is a plot showing the time-dependent killing of MRSA (strain LAC) by vancomycin and an example vancomycin-2-3-pyrrolidinedione conjugate (Compound 4).
as §2

MSSA ATCC 25923 biofilm = assay: Viable bacteria in supernatant and biofilm after single treatment of MSSA biofilm; type: cell-based, Staphylococcus aureus
From the text: FIG. 5 is a plot showing the effect of a single dose of different concentrations of Compound 4 on the concentration of bacteria in the supernatant over a methicillin-susceptible Staphylococcus aureus (MSSA ATCC 25923). FIG. 6 is a plot showing the time-dependent biofilm population following treatment of a methicillin-susceptible Staphylococcus aureus (MSSA ATCC 25923) biofilm with Compound 4. […] FIG. 5 is a plot showing the effect of a single dose of different concentrations of Compound 4 on the concentration of bacteria in the supernatant over a methicillin-susceptible Staphylococcus aureus (MSSA ATCC 25923). […] FIG. 6 is a plot showing the time-dependent biofilm population following treatment of a methicillin-susceptible Staphylococcus aureus (MSSA ATCC 25923) biofilm with Compound 4.

VRSA = conditions: S. aureus VRS-2; cited from earlier work

Row | MIC (vanA VRE 700221; VRE, the 2nd table, read-out: MIC (vanA VRE 700221)) [µg/mL] | MIC (vanA VRE 700221; vanA VRE 700221, the 3rd table, read-out: MIC) [µg/mL] | MIC (vanB VRE 51299; VRE, the 2nd table, read-out: MIC (vanB VRE 51299)) [µg/mL] | MIC (vanB VRE 51299; vanB VRE 51299, the 3rd table, read-out: MIC) [µg/mL] | SMILES | bacterial count reduction in thigh tissue relative to the vehicle control group (S. aureus VRS-2) [%] | effect relative to the baseline control (S. aureus VRS-2; FIG. 9) | time-dependent killing profile (S. aureus (strain HG003)) | time-dependent killing profile (MRSA (strain LAC)) | single dose at which no viable bacterial cells were detected in the treatment supernatant (MSSA ATCC 25923 biofilm; MSSA ATCC 25923, detection limit 10^2, FIG. 5) | viable biofilm-embedded bacterial cells (MSSA ATCC 25923 biofilm; MSSA ATCC 25923 biofilm, 24 hours after a single treatment at twice the MBEC, FIG. 6) | MIC (vanA VRE 700221; VRE) [µg/mL] | MIC (vanA VRE 700221; VRE, read-out: MIC (vanA VRE 700221)) [µg/mL] | MIC (vanB VRE 51299; VRE) [µg/mL] | MIC (vanB VRE 51299; VRE, read-out: MIC (vanB VRE 51299)) [µg/mL] | MIC of vancomycin for VRS-2 (strain description) (VRSA) [µg/mL] | antibiotic resistance profile of VRS-2: vancomycin (VRSA) [µg/mL]
1 | 8 (≈ 20.9 µM) | 8 (≈ 20.9 µM) | 2 (≈ 5.23 µM) | 2 (≈ 5.23 µM) | CCC1C(c2ccc(C(F)(F)F)cc2)=C(O)C(=O)N1C1CCC(NC)CC1 (centres unmarked) [Compound 4] | 100 | bacteriostatic effect | roughly matched vancomycin at the same concentration | roughly matched vancomycin at the same concentration | at least 16 μg/mL | no viable biofilm-embedded bacterial cells were detected | – | – | – | – | – | –
2 | – | – | – | – | CCC1C(c2ccc(C(F)(F)F)cc2)=C(O)C(=O)N1CCCNCCCCNC (centres unmarked) [Compound 8] | 100 | – | – | – | – | – | – | – | – | – | – | –
3 | – | – | – | – | CN[C@H](CC(C)C)C(=O)N[C@H]1C(=O)N[C@@H](CC(N)=O)C(=O)N[C@H]2C(=O)N[C@H]3C(=O)N[C@H](C(=O)N[C@H](C(=O)O)c4cc(O)cc(O)c4-c4cc3ccc4O)[C@H](O)c3ccc(c(Cl)c3)Oc3cc2cc(c3O[C@@H]2O[C@H](CO)[C@@H](O)[C@H](O)[C@H]2O[C@H]2C[C@](C)(N)[C@H](O)[C@H](C)O2)Oc2ccc(cc2Cl)[C@H]1O [Vancomycin, vancomycin, reference compound] | – | – | – | – | – | – | 512 (≈ 353 µM) | 512 (≈ 353 µM) | 256 (≈ 177 µM) | 256 (≈ 177 µM) | > 64 | > 64
